# Measurements published in patent publication EP0191520A1, “(1-phenylmethyl-5-hydroxy-1H-indazol-3-yl)-oxyacetic acid and salts thereof for use as a medicament, and pharmaceutical compositions containing them” (AZIENDE CHIMICHE RIUNITE ANGELINI FRANCESCO A.C.R.A.F. …, priority 1985, dated 1986).
# Like-named read-outs stand apart in the source and are kept apart here.
# Key:
# albumin of beef serum = molecular target: T1, albumin of beef serum (Bos taurus, UniProt P02769); assay: protective effect on protein denaturation from UV rays (method of Silvestrini et al.); assay type: biochemical; conditions: for inhibition at 50 µM: molar conc. .00005; for inhibition at 200 µM: molar conc. .0002
# T1 construct: albumin of beef serum; from tissue; host or cells: beef serum
# T1 sequence (P02769 25-607): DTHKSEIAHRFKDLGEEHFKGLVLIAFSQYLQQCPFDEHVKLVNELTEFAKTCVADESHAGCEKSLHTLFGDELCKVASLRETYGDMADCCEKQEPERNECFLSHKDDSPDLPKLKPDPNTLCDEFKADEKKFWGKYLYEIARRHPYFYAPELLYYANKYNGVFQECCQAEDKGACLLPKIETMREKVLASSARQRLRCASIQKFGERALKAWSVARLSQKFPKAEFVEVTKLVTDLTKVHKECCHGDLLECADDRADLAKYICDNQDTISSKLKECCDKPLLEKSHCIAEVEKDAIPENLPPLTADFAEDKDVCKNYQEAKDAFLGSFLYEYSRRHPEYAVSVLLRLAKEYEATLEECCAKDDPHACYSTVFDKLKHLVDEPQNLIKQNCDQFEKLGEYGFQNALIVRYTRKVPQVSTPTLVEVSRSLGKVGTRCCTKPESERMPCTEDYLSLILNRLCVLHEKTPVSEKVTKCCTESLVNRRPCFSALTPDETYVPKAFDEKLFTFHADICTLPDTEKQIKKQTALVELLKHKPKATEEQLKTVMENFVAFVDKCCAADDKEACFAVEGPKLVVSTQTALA
# Procedure: The Compounds of formulas I and II were tested under experimental conditions designed to show the protective effect on protein denaturation from UV rays according to the method of Silvestrini et al. (Int. J. Tiss. Reac. 5, 217-225, 1983) which comprises the measurement of the protective action of the compound under examination on the denaturation of the albumin of beef serum submitted to UV rays for 30 minutes.
# [1] = tested on: bilateral senile cataract; assay: preliminary tests on man: cataract therapy for three months, oral or topical; assay type: in vivo; conditions: 10 patients
# Procedure: Preliminary tests on man confirmed the action of Compound II in cataract therapy.
# Two groups of 10 patients afflicted by bilateral senile cataract with cortical or subcapsular or cortinuclear localization, in the initial evolutive stage, without fundus alterations and with a distant visus from 5 to 9 tenths (after correction of any refraction error) were treated for three months with Compound II orally (100 mg tablet; 1 tablet, three times a day) and topically (0.1% collyrium; 1 drop in the conjunctival sac of each eye three times a day) respectively.
# The effect of the treatment was evaluated by monitoring the variations in the visus, in the refraction error, and in lenticular opacity (by biomicroscopy with a slit lamp and by ophthalmoscopy).
# [2] = orally, 100 mg tablet three times a day
# [3] = topically, 0.1% collyrium, 1 drop in each eye three times a day
# [4] = UV rays for 30 minutes, read-out: % INHIBITION MEAN
# [5] = single determinations, UV rays for 30 minutes, read-out: % INHIBITION
compound,measurement,setting,value
"O=C(O)COc1nn(Cc2ccccc2)c2ccccc12 [Compound I, bendazac lysinate, reference compound]",inhibition at 250 µM,"albumin of beef serum; molar conc. .00025, UV rays for 30 minutes",12%
same,inhibition at 500 µM,"albumin of beef serum; molar conc. .0005, UV rays for 30 minutes",21%
same,inhibition at 1000 µM,"albumin of beef serum; molar conc. .001, UV rays for 30 minutes",42%
same,inhibition at 2000 µM,"albumin of beef serum; molar conc. .002, UV rays for 30 minutes",61%
"O=C(O)COc1nn(Cc2ccccc2)c2ccc(O)cc12 [Compound II, (5-hydroxy-1-benzyl)-indazolyl-3-oxyacetic acid]",opacity decreased,[1]; [2],6 eyes
same,opacity increased,[1]; [2],1 eye
same,opacity remained unchanged,[1]; [2],13 eyes
same,overall clinical judgement: patients improved,[1]; [2],7 patients
same,overall clinical judgement: remained unchanged,[1]; [2],2 patients
same,overall clinical judgement: worsened slightly,[1]; [2],one
same,overall clinical judgement: patients improved greatly,"[1]; orally, 100 mg tablet three times a day, part of the 7 improved",4 patients
same,mean visus value increased,"[1]; orally, 100 mg tablet three times a day, t = 3.58, P < 0.01",16.79%
same,opacity decreased,[1]; [3],7 eyes
same,opacity increased,[1]; [3],2 eyes
same,opacity remained unchanged,[1]; [3],11 eyes
same,overall clinical judgement: patients improved,[1]; [3],4 patients
same,overall clinical judgement: remained unchanged,[1]; [3],5 patients
same,overall clinical judgement: worsened,[1]; [3],one
same,mean visus value increased,"[1]; topically, 0.1% collyrium, 1 drop in each eye three times a day, t = 2.54, P < 0.05",12.78%
same,inhibition at 50 µM,albumin of beef serum; [4],10%
same,inhibition at 50 µM,albumin of beef serum; [5],8 to 13%
same,inhibition at 100 µM,"albumin of beef serum; molar conc. .0001, UV rays for 30 minutes",77%
same,inhibition at 200 µM,albumin of beef serum; [4],92%
same,inhibition at 200 µM,albumin of beef serum; [5],85 to 100%
same,times as active as Compound I,albumin of beef serum; relative activity versus Compound I in this test,at least 10 times
